Assays:
Test in all cases: Cancer cell growth inhibition
Format in all cases: cell-based
SKNAS = conditions: Homo sapiens, SK-N-AS; SKNAS (brain), 72 hr treatment
Method: (§1) The ability of select compounds to inhibit cell growth in various cancer cell lines are evaluated. […] The cell lines shown in Table 2 have reduced growth by at least 50% at 10 uM or lower over 72 hr treatment in growth media. The cell lines shown in Table 3 have reduced growth by at least 50% with an IC50 greater than 10 uM.
(§2) Six 10-fold compound dilutions are prepared in DMSO (e.g. 10 mM, 1 mM, 100 uM, 10 uM, 1 uM, and 0.1 uM). Single data points are acquired for each concentration. The final concentration of DMSO is 0.1%. The duration of the treatment is 72 hr. Growth inhibition is measured using Sulforhodamine B in a protein staining assay. Activity of the agents is determined by evaluation the following parameters: IC50, GI50, IC10, TGI, LC50, IC90, and GI90 (where these values can be calculated).

DU145 = conditions: Homo sapiens, DU-145; DU145 (prostate), 72 hr treatment
Method: as §1, §2

PC3 = conditions: Homo sapiens, PC-3; PC3 (prostate), 72 hr treatment
Method: as §1, §2

SF295 = conditions: Homo sapiens, SF-295; SF295 (brain), 72 hr treatment
Method: as §1, §2

SKBR3 = conditions: Homo sapiens, SK-BR-3; SKBR3 (breast), 72 hr treatment
Method: as §1, §2

EFO21 = conditions: Homo sapiens, EFO-21; EFO21 (ovary), 72 hr treatment
Method: as §1, §2

NCIH82 = conditions: Homo sapiens, NCI-H82; NCIH82 (lung), 72 hr treatment
Method: as §1, §2

SAOS2 = conditions: Homo sapiens, SAOS-2; SAOS2 (bone), 72 hr treatment
Method: as §1, §2

A549 = conditions: Homo sapiens; A549 (lung), 72 hr treatment
Method: as §1, §2

MDAMB231 = conditions: Homo sapiens, MDA-MB-231; MDAMB231 (breast), 72 hr treatment
Method: as §1, §2

HCT15 = conditions: Homo sapiens, HCT-15; HCT15 (colon), 72 hr treatment
Method: as §1, §2

JEG3 = conditions: Homo sapiens, JEG-3; JEG3 (placenta), 72 hr treatment
Method: as §1, §2

GRANTA-519 = conditions: Homo sapiens; GRANTA-519 (hematological), 72 hr treatment
Method: as §1, §2

MG63 = conditions: Homo sapiens, MG-63; MG63 (bone), 72 hr treatment
Method: as §1, §2

CAKI1 = conditions: Homo sapiens, CAKI-1; CAKI1 (kidney), 72 hr treatment
Method: as §1, §2

RAMOS = conditions: Homo sapiens; RAMOS (hematological), 72 hr treatment
Method: as §1, §2

SU-DHL-10 = conditions: Homo sapiens, SU-DHL10; SU-DHL-10 (hematological), 72 hr treatment
Method: as §1, §2

MCF7 = conditions: Homo sapiens; MCF7 (breast), 72 hr treatment
Method: as §1, §2

MV4-11 = conditions: Homo sapiens; MV4-11 (hematological), 72 hr treatment
Method: as §1, §2

UMUC3 = conditions: Homo sapiens; UMUC3 (bladder), 72 hr treatment
Method: as §1, §2

ASPC1 = conditions: Homo sapiens; ASPC1 (pancreas), 72 hr treatment
Method: as §1, §2

SKMEL28 = conditions: Homo sapiens, SK-MEL-28; SKMEL28 (skin), 72 hr treatment
Method: as §1, §2

PANC1 = conditions: Homo sapiens, PANC-1; PANC1 (pancreas), 72 hr treatment
Method: as §1, §2

UO31 = conditions: Homo sapiens, UO-31; UO31 (kidney), 72 hr treatment
Method: as §1, §2

T24 = conditions: Homo sapiens, T-24; T24 (bladder), 72 hr treatment
Method: as §1, §2

IGROV1 = conditions: Homo sapiens, IGROV-1; IGROV1 (ovary), 72 hr treatment
Method: as §1, §2

ACHN = conditions: Homo sapiens; ACHN (kidney), 72 hr treatment
Method: as §1, §2

CALU6 = conditions: Homo sapiens, Calu-6; CALU6 (lung), 72 hr treatment
Method: as §1, §2

A375 = conditions: Homo sapiens, A-375; A375 (skin), 72 hr treatment
Method: as §1, §2

RD = conditions: Homo sapiens; RD (muscle), 72 hr treatment
Method: as §1, §2

5637 = 5637 (bladder), 72 hr treatment
Method: as §1, §2

IMR90 = conditions: Homo sapiens, IMR-90; IMR90 (lung), 72 hr treatment
Method: as §1, §2

Row | Structure (SMILES) | IC50 (SKNAS) | IC50 (DU145) | IC50 (PC3) | IC50 (SF295) | IC50 (SKBR3) | IC50 (EFO21) | IC50 (NCIH82) | IC50 (SAOS2) | IC50 (A549) | IC50 (MDAMB231) | IC50 (HCT15) | IC50 (JEG3) | IC50 (GRANTA-519) | IC50 (MG63) | IC50 (CAKI1) | IC50 (RAMOS) | IC50 (SU-DHL-10) | IC50 (MCF7) | IC50 (MV4-11) | IC50 (UMUC3) | other results
1 | CC(C)(CO)c1cc(-c2csc(-c3ccc(NS(C)(=O)=O)cc3Cl)c2)ccn1 [Compound I-8909, N-(3-chloro-4-(4-(2-(1-hydroxy-2-methylpropan-2-yl)pyridin-4-yl)thiophen-2-yl)phenyl)methanesulfonamide] | > 10 µM | > 10 µM | > 10 µM | < 10 µM | < 10 µM | < 10 µM | < 10 µM | > 10 µM | < 10 µM | > 10 µM | > 10 µM | < 10 µM | > 10 µM | > 10 µM | < 10 µM | < 10 µM | < 10 µM | < 10 µM | < 10 µM | < 10 µM | IC50 (ASPC1): < 10 µM; IC50 (SKMEL28): < 10 µM; IC50 (PANC1): < 10 µM; IC50 (UO31): > 10 µM; IC50 (T24): > 10 µM; IC50 (IGROV1): > 10 µM; IC50 (ACHN): < 10 µM; IC50 (CALU6): < 10 µM; IC50 (A375): > 10 µM; IC50 (RD): > 10 µM; IC50 5637: < 10 µM; IC50 (IMR90): > 10 µM
2 | CS(=O)(=O)Nc1ccc(-c2cc(-c3ccnc4c3OCCO4)cs2)c(Cl)c1 [Compound I-9017, N-(3-chloro-4-(4-(2,3-dihydro-[1,4]dioxino[2,3-b]pyridin-8-yl)thiophen-2-yl)phenyl)methanesulfonamide] | > 10 µM | < 10 µM | > 10 µM | < 10 µM | < 10 µM | < 10 µM | < 10 µM | < 10 µM | < 10 µM | > 10 µM | > 10 µM | < 10 µM | < 10 µM | > 10 µM | < 10 µM | < 10 µM | < 10 µM | < 10 µM | < 10 µM | < 10 µM | IC50 (ASPC1): < 10 µM; IC50 (SKMEL28): < 10 µM; IC50 (PANC1): < 10 µM; IC50 (UO31): < 10 µM; IC50 (T24): < 10 µM; IC50 (IGROV1): < 10 µM; IC50 (ACHN): < 10 µM; IC50 (CALU6): < 10 µM; IC50 (A375): > 10 µM; IC50 (RD): > 10 µM; IC50 5637: < 10 µM; IC50 (IMR90): > 10 µM
3 | CC(C)(O)Cc1cc(-c2csc(-c3ccc(NS(C)(=O)=O)cc3Cl)c2)ccn1 [Compound I-9004, N-(3-chloro-4-(4-(2-(2-hydroxy-2-methylpropyl)pyridin-4-yl)thiophen-2-yl)phenyl)methanesulfonamide] | > 10 µM | > 10 µM | > 10 µM | < 10 µM | < 10 µM | < 10 µM | < 10 µM | > 10 µM | < 10 µM | > 10 µM | < 10 µM | < 10 µM | > 10 µM | > 10 µM | < 10 µM | < 10 µM | < 10 µM | < 10 µM | < 10 µM | < 10 µM | IC50 (ASPC1): < 10 µM; IC50 (SKMEL28): < 10 µM; IC50 (PANC1): < 10 µM; IC50 (UO31): > 10 µM; IC50 (T24): > 10 µM; IC50 (IGROV1): > 10 µM; IC50 (ACHN): < 10 µM; IC50 (CALU6): < 10 µM; IC50 (A375): > 10 µM; IC50 (RD): > 10 µM; IC50 5637: > 10 µM; IC50 (IMR90): > 10 µM

— US20220056018A1, “SREBP INHIBITORS COMPRISING A THIOPHENE CENTRAL RING” (Capulus Therapeutics, LLC, priority 2019, published 2022)
